Values quoted from earlier work, collected in patent US4556678A (Key Pharmaceuticals, Inc., priority 1982, dated 1985).

[1] = oral formulations currently in use

In the case of `CC(C)NCC(O)COc1cccc2ccccc12` (stereo not drawn) [Propranolol, propranolol], the bioavailability (administration with food) is given as “enhance its bioavailability”, the “absorption from the gastrointestinal tract” value [1] is given as “almost completely absorbed” and the liver metabolism [1] is given as “subject to rapid liver metabolism”.
